Results reported in US20210292765A1, “COMPOSITIONS COMPRISING INTERMEDIATE NON-CODING RNA REGULATORS MODULATING THE EXPRESSION OF ETV6 OR FOXO1 AND USES THEREOF” (University of Exeter, priority 2018, published 2021).
Marks after values point to notes of the source that are not given here.

Legend:
Format in all cases: cell-based
[1] = test system: late passage primary human fibroblast cells; assay: SASP protein levels in culture medium (MesoScale multiplex ELISA); settings: 24 hrs, culture medium from senescent cells
Method: Late passage primary human fibroblast cells at PD=63 were seeded at 6×10^4 cells per well in a 6 well plate, cultured for 10 days and then treated with at 1 μM or 10 μM trametinib (MEK/ERK inhibitor) or SH-6 (AKT inhibitor) for 24 hours. Cell supernatants were then harvested and stored at −80° C. Levels of GMCSF, IFNγ, IL1β, IL2, IL6, IL8, IL10, IL-12p70, and TNFα SASP components were measured in cell supernatants from treated and vehicle-only control cells using the K15007B MesoScale Discovery multiplex ELISA immunoassay (MSD, Rockville, USA) in 4 biological replicates. Proteins were quantified relative to a standard curve using a Sector Imager SI-6000 according to the manufacturer's instructions.

[2] = test system: senescent primary human fibroblasts; assay: Splicing factor transcript expression by qRTPCR (TLDA); settings: 24 hrs, control = 1.00
Method: Late passage primary human fibroblasts at PD=63 were seeded at 6×10^4 cells per well as 3 biological replicates in 6-well plates, allowed to grow for 10 days and then treated with the ERK inhibitor trametinib or the AKT inhibitor SH-6 at 1 μM or 10 μM for 24 hrs. Vehicle (DMSO) only controls were also included under the same growth conditions. The expression levels of 20 splicing factor transcripts previously associated with age, replicative senescence or lifespan in our previous work (Harries et al. 2011; Holly et al. 2013; Lee et al. 2016) were then assessed by qRTPCR. RNA was extracted using TRI Reagent® (Life Technologies, Foster City USA) according to the manufacturer's instructions. Total RNA (100 ng) was reverse transcribed in 20 μl reactions using the Superscript III VILO kit (Life Technologies). Transcript expression was then quantified in duplicate for each biological replicate using TaqMan Low Density Array (TLDA) on QuantStudio 12K Flex (Applied Biosystems, Foster City, USA). Cycling conditions were 1 cycle each of 50° C. for 2 min, 94.5° C. for 10 min and then 40 cycles of 97° C. for 30 s and 57.9° C. for 1 min. The reaction mixes included 50 μl TaqMan Fast Universal PCR Mastermix (Life Technologies), 30 μl dH2O and 20 μl cDNA template. 100 μl reaction mixture was dispensed into the TLDA card chamber and centrifuged twice for 1 min at 1000 rpm. Transcript expression was assessed by the Comparative Ct approach, relative to the IDH3B, GUSB and PP/A endogenous control genes and normalised to their expression in RNA from untreated late passage cells.

[3] = test system: late passage primary human fibroblasts; assay: Cell proliferation index by Ki67 immunofluorescence; settings: for increase in proliferative index: gene knockdown with morpholino oligonucleotides (10 μM)
Method: The proliferative capacity of treated cells was assessed by Ki67 and BrdU staining and by cell counts. Late passage primary human fibroblasts at PD=63 were seeded at 1×10^4 cells per well in 3 biological replicates in 24-well plates, allowed to grow for 10 days and then assayed for cell proliferation by ki67 staining. For assessment of cells in S phase, late passage primary human fibroblasts at PD=63 were seeded at 1×10^4 cells per coverslip as 3 biological replicates in 24-well plates, allowed to grow for 10 days and then were incubated with 5-Bromo-2′-deoxy-uridine (BrdU) for 24 hrs. BrdU incorporation was determined by the 5-Bromo-2′-deoxy-uridine labeling and detection kit I following instructions of the manufacturer (Roche Molecular Biochemicals). BrdU positive cells were visualized and counted by fluorescence microscopy. Cell counts were carried out manually in 3 biological replicates in treated and vehicle-only cultures following trypsinisation and suspension of cells and are presented as mean (+/−SEM). Following treatment, cells were fixed for 10 min with 4% PFA and permeabilized with 0.025% Triton and 10% serum in PBS for 1 hour. Ki-67 staining was carried out by rabbit monoclonal antibody (ab16667, Abcam, UK) at a 1:400 dilution and samples were incubated overnight at 4° C., followed by FITC-conjugated secondary goat anti-rabbit antibody (1:400) for 1 hour, and nuclei were counterstained with DAPI. Coverslips were mounted on slides in DAKO fluorescence mounting medium (S3023; Dako, Santa Clara, USA). The proliferation index was determined by counting the percentage of Ki67 positive cells from at least 400 nuclei from each biological replicate at 400× magnification under a Leica D4000 fluorescence microscope.

[4] = test system: late passage primary human fibroblasts; assay: Cellular senescence by SA-β-Gal staining; settings: gene knockdown with morpholino oligonucleotides (10 μM)
[5] = test system: late passage primary human fibroblasts; assay: CDKN2A (p16) and CDKN1A (p21) expression by qRTPCR; settings: gene knockdown with morpholino oligonucleotides (10 μM)

## CC(=O)Nc1cccc(-n2c(=O)n(C3CC3)c(=O)c3c(Nc4ccc(I)cc4F)n(C)c(=O)c(C)c32)c1 [Trametinib, trametinib]
[1]; 1 uM
  GM-CSF SASP protein expression: 24.65*** percentage of the control value
  IL1b SASP protein expression: 156.70** percentage of the control value
  IL2 SASP protein expression: 50.72** percentage of the control value
  IL6 SASP protein expression: 77.75 percentage of the control value
  IL8 SASP protein expression: 44.42** percentage of the control value
  IL10 SASP protein expression: 34.37*** percentage of the control value
  IL12p70 SASP protein expression: 69.64 percentage of the control value
  INF-g SASP protein expression: 95.08 percentage of the control value
  TNFa SASP protein expression: 104.61 percentage of the control value
[1]; 10 uM
  GM-CSF SASP protein expression: 9.85*** percentage of the control value
  IL1b SASP protein expression: 50.35** percentage of the control value
  IL2 SASP protein expression: 14.39*** percentage of the control value
  IL6 SASP protein expression: 33.57*** percentage of the control value
  IL8 SASP protein expression: 5.33*** percentage of the control value
  IL10 SASP protein expression: 86.01 percentage of the control value
  IL12p70 SASP protein expression: 77.78 percentage of the control value
  INF-g SASP protein expression: 106.33 percentage of the control value
  TNFa SASP protein expression: 118.65 percentage of the control value
[2]; 1 uM
  AKAP17A splicing factor mRNA expression: 2.01***
  HNRNPA0 splicing factor mRNA expression: 2.38***
  HNRNPA1 splicing factor mRNA expression: 1.52*
  HNRNPA2B1 splicing factor mRNA expression: 1.53*
  HNRNPD splicing factor mRNA expression: 1.79*
  HNRNPH3 splicing factor mRNA expression: 1.89***
  HNRNPK splicing factor mRNA expression: 1.68***
  HNRNPM splicing factor mRNA expression: 1.46*
  HNRNPUL2 splicing factor mRNA expression: 1.63***
  IMP3 splicing factor mRNA expression: 1.77***
  LSM2 splicing factor mRNA expression: 0.85
  LSM14A splicing factor mRNA expression: 1.61**
  PNISR splicing factor mRNA expression: 1.63**
  SF3B1 splicing factor mRNA expression: 1.93***
  SRSF1 splicing factor mRNA expression: 1.69*
  SRSF2 splicing factor mRNA expression: 2.07**
  SRSF3 splicing factor mRNA expression: 1.64***
  SRSF6 splicing factor mRNA expression: 2.68***
  SRSF7 splicing factor mRNA expression: 2.38***
  TRA2B splicing factor mRNA expression: 1.66*
[2]; 10 uM
  AKAP17A splicing factor mRNA expression: 0.74**
  HNRNPA0 splicing factor mRNA expression: 1.11
  HNRNPA1 splicing factor mRNA expression: 0.49***
  HNRNPA2B1 splicing factor mRNA expression: 0.70***
  HNRNPD splicing factor mRNA expression: 0.75**
  HNRNPH3 splicing factor mRNA expression: 0.95
  HNRNPK splicing factor mRNA expression: 1.02
  HNRNPM splicing factor mRNA expression: 0.69***
  HNRNPUL2 splicing factor mRNA expression: 0.94
  IMP3 splicing factor mRNA expression: 0.97
  LSM2 splicing factor mRNA expression: 0.82
  LSM14A splicing factor mRNA expression: 1.18
  PNISR splicing factor mRNA expression: 1.11
  SF3B1 splicing factor mRNA expression: 0.96
  SRSF1 splicing factor mRNA expression: 0.68**
  SRSF2 splicing factor mRNA expression: 0.86*
  SRSF3 splicing factor mRNA expression: 0.72***
  SRSF6 splicing factor mRNA expression: 0.69***
  SRSF7 splicing factor mRNA expression: 0.57***
  TRA2B splicing factor mRNA expression: 0.73**
[3]; low dose (1 μM)
  increase in proliferative index (Ki67 staining): 31%

## ETV6 morpholino: Antisense morpholino to 5′ untranslated region of ETV6: CATGTCTCACAGCGAGAGAGATCAG (all phosphorodiamidate morpholino (PMO))
[4]
  reduction in senescent cell load as measured by SA-β-Gal staining: ~18%
[5]
  reduction in CDKN2A expression: 24%
[3]
  increase in proliferative index: 36%

## FOXO1 morpholino: Antisense morpholino to 5′ untranslated region of FOXO1: TCCCCCAGCCGCAGGAGAGCCAAGA (all phosphorodiamidate morpholino (PMO))
[4]
  reduction in senescent cell load as measured by SA-β-Gal staining: ~40%
[5]
  reduction in CDKN2A expression: 43%
[3]
  increase in proliferative index: 19%
